Results published in patent publication US20160130278A1 (TAISHO PHARMACEUTICAL CO., LTD, priority 2013, published 2016).

biological target: T1, human type 1 glycine transporter (GlyT1) (Homo sapiens, UniProt P48067); assay: Glycine uptake inhibition experiment ([3H]glycine uptake); type: cell-based; settings: GlyT1
T1 construct: T98G cells (glioma cells) expressing human type 1 glycine transporter (GlyT1) were used
T1 sequence (P48067 1-706): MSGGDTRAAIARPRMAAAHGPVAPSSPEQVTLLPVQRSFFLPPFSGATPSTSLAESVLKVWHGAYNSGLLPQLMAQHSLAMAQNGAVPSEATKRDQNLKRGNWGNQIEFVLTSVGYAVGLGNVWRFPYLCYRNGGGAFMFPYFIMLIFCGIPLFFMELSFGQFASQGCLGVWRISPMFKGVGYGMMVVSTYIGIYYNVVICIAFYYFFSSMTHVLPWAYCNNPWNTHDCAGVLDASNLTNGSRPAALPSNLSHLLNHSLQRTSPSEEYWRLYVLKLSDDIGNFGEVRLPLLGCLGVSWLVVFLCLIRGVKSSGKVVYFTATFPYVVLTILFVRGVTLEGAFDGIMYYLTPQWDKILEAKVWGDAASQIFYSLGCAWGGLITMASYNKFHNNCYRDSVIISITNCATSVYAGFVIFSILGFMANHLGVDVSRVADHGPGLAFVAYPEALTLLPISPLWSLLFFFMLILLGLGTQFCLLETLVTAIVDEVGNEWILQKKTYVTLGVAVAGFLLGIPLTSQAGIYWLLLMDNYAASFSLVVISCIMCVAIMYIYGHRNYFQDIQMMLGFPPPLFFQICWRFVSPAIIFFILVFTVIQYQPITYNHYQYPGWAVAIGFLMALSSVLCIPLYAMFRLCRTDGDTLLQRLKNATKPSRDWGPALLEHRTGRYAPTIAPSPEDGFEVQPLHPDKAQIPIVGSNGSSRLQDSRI
Method in brief: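 T98G glioma cells expressing human GlyT1 were pretreated 10 min with compound in HEPES buffer pH 7.4 (0.2% BSA), then incubated with compound plus 250 nM final [3H]glycine for 15 min at room temperature. Intracellular radioactivity was counted after NaOH lysis; 10 μM ALX5407 defined non-specific uptake. IC50 came from 10^−9–10^−5 M curves.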

| IC50 | Compound |
| --- | --- |
| 1100 nM | Cc1ccc(-n2nccn2)c(C(=O)NC(c2cccc(F)c2Cl)[C@]2(O)CC[C@@H](F)CC2)n1 (single isomer, unassigned) [Compound 283, N-[(2-chloro-3-fluorophenyl)(cis-4-fluoro-1-hydroxycyclohexyl)methyl]-6-methyl-3-(2H-1,2,3-triazol-2-yl)pyridine-2-carboxamide] |
| 1700 nM | O=C(NC(c1cccc(F)c1Cl)[C@]1(O)CC[C@@H](F)CC1)c1cccnc1-n1cccn1 (single isomer, unassigned) [Compound 268, N-[(2-chloro-3-fluorophenyl)(cis-4-fluoro-1-hydroxycyclohexyl)methyl]-2-(1H-pyrazol-1-yl)pyridine-3-carboxamide] |
| 430 nM | O=C(NC(c1cccc(F)c1Cl)[C@]1(O)CC[C@@H](F)CC1)c1cc(Cl)ccc1Cl (single isomer, unassigned) [Compound 251, 2,5-dichloro-N-[(2-chloro-3-fluorophenyl)(cis-4-fluoro-1-hydroxycyclohexyl)methyl]benzamide] |
| 56 nM | O=C(NC(c1cccc(F)c1Cl)[C@]1(O)CC[C@@H](F)CC1)c1ccnc(C(F)(F)F)c1Cl (single isomer, unassigned) [Compound 223, 3-chloro-N-[(2-chloro-3-fluorophenyl)(cis-4-fluoro-1-hydroxycyclohexyl)methyl]-2-(trifluoromethyl)pyridine-4-carboxamide] |
| 150 nM | O=C(NC(c1cccc(Cl)n1)C1(O)CCC(F)(F)CC1)c1cccc(C(F)(F)F)c1Cl (single isomer, unassigned) [Compound 352, 2-chloro-N-[(6-chloropyridin-2-yl)(4,4-difluoro-1-hydroxycyclohexyl)methyl]-3-(trifluoromethyl)benzamide] |
| 200 nM | O=C(NC(c1cccc(Cl)n1)[C@]1(O)CC[C@@H](F)CC1)c1nccc(C(F)F)c1Cl (single isomer, unassigned) [Compound 328, 3-chloro-N-[(6-chloropyridin-2-yl)(cis-4-fluoro-1-hydroxycyclohexyl)methyl]-4-(difluoromethyl)pyridine-2-carboxamide] |
| 440 nM | O=C(NC(c1ccnc(Cl)c1)[C@]1(O)CC[C@@H](F)CC1)c1nccc(C(F)(F)F)c1Cl (single isomer, unassigned) [Compound 257] |
| 2100 nM | O=C(NC(c1cccc(F)c1Cl)[C@]1(O)CC[C@@H](F)CC1)c1cc(F)ccc1Cl (single isomer, unassigned) [Compound 295, 2-chloro-N-[(2-chloro-3-fluorophenyl)(cis-4-fluoro-1-hydroxycyclohexyl)methyl]-5-fluorobenzamide] |
| 450 nM | COc1ccc(Cl)c(C(=O)NC(c2cccc(F)c2Cl)[C@]2(O)CC[C@@H](F)CC2)c1 (single isomer, unassigned) [Compound 293, 2-chloro-N-[(2-chloro-3-fluorophenyl)(cis-4-fluoro-1-hydroxycyclohexyl)methyl]-5-methoxybenzamide] |
| 900 nM | O=C(NC(c1cc(Cl)ccn1)[C@]1(O)CC[C@@H](F)CC1)c1nccc2ccccc12 (single isomer, unassigned) [Compound 334, N-[(4-chloropyridin-2-yl)(cis-4-fluoro-1-hydroxycyclohexyl)methyl]isoquinoline-1-carboxamide] |
| 2300 nM | O=C(NC(c1cc(Cl)ccc1F)[C@]1(O)CC[C@@H](F)CC1)c1cc(C(F)(F)F)cnc1Cl (single isomer, unassigned) [Compound 378, 2-chloro-N-[(5-chloro-2-fluroophenyl)(cis-4-fluoro-1-hydroxycyclohexyl)methyl]-5-(trifluoromethyl)pyridine-3-carboxamide] |
| 77 nM | O=C(NC(c1cccc(Cl)n1)[C@]1(O)CC[C@@H](F)CC1)c1nccc(C(F)(F)F)c1Cl (single isomer, unassigned) [Compound 274, 3-chloro-N-[(6-chloropyridin-2-yl)(cis-4-fluoro-1-hydroxycyclohexyl)methyl]-4-(trifluoromethyl)pyridine-2-carboxamide] |
| 550 nM | O=C(NC(c1cccc(Cl)n1)[C@]1(O)CC[C@@H](F)CC1)c1nccc2ccccc12 (single isomer, unassigned) [Compound 310, N-[(6-chloropyridin-2-yl)(cis-4-fluoro-1-hydroxycyclohexyl)methyl]isoquinoline-1-carboxamide] |

Second part, the compound before the results:

| Compound | IC50 |
| --- | --- |
| O=C(N[C@@H](c1cccc(Br)c1)C1(O)CCCC1)c1nccc(C(F)(F)F)c1-n1ccnn1 [Compound 71, N-[(S)-(3-bromophenyl)(1-hydroxycyclopentyl)methyl]-3-(1H-1,2,3-triazol-1-yl)-4-(trifluoromethyl)pyridine-2-carboxamide] | 5700 nM |
| CCn1cc(-c2cccc(C(NC(=O)c3cc(Cl)ccc3C(F)(F)F)C3(O)CCC(F)(F)CC3)c2)cn1 (single isomer, unassigned) [Compound 218, 5-chloro-N-[(4,4-difluoro-1-hydroxycyclohexyl)[3-(1-ethyl-1H-pyrazol-4-yl)phenyl]methyl}-2-(trifluoromethyl)benzamide] | 5900 nM |
| CN(C)Cc1cccc(C(NC(=O)c2nccc(C(F)(F)F)c2Cl)C2(O)CCCC2)c1 (stereo not drawn) [Compound 112, 3-chloro-N-[{3-[(dimethylamino)methyl]phenyl}(1-hydroxycyclopentyl)methyl]-4-(trifluoromethyl)pyridine-2-carboxamide] | 1800 nM |
| O=C(NC(c1cccc(-c2cccnc2)c1)C1(O)CCCC1)c1cccc(C(F)(F)F)c1Cl (stereo not drawn) [Compound 3, 2-chloro-N-{(1-hydroxycyclopentyl)[3-(pyridin-3-yl)phenyl]methyl}-3-(trifluoromethyl)benzamide] | 360 nM |
| N#Cc1cccc(C(NC(=O)c2nccc(C(F)(F)F)c2Cl)C2(O)CCCC2)c1 (stereo not drawn) [Compound 23, 3-chloro-N-[(3-cyanophenyl)(1-hydroxycyclopentyl)methyl]-4-(trifluoromethyl)pyridine-2-carboxamide] | 300 nM |
| O=C(NC(c1cccc(Br)c1)C1(O)CCC(F)(F)CC1)c1nccc(C(F)(F)F)c1Cl (single isomer, unassigned) [Compound 90, N-[(3-bromophenyl)(4,4-difluoro-1-hydroxycyclohexyl)methyl]-3-chloro-4-(trifluoromethyl)pyridine-2-carboxamide] | 300 nM |
| O=C(N[C@H](c1cccc(Cl)c1)[C@]1(O)CC[C@@H](F)CC1)c1nccc(C(F)(F)F)c1Cl [Compound 161, 3-chloro-N-[(R)-(3-chlorophenyl)(cis-4-fluoro-1-hydroxycyclohexyl)methyl]-4-(trifluoromethyl)pyridine-2-carboxamide] | 6700 nM |
| O=C(N[C@@H](c1cccc(Br)c1)[C@]1(O)CC[C@@H](F)CC1)c1nccc(C(F)(F)F)c1Cl [Compound 110, N-[(S)-(3-bromophenyl)(cis-4-fluoro-1-hydroxycyclohexyl)methyl]-3-chloro-4-(trifluoromethyl)pyridine-2-carboxamide] | 95 nM |
| CCn1cc(-c2cccc(C(NC(=O)c3ccnc(C(F)(F)F)c3)C3(O)CCC(F)(F)CC3)c2)cn1 (stereo not drawn) [Compound 172, N-{(4,4-difluoro-1-hydroxycyclohexyl)[3-(1-ethyl-1H-pyrazol-4-yl)phenyl]methyl}-2-(trifluoromethyl)pyridine-4-carboxamide] | 5000 nM |
| O=C(NC(c1ccccc1Br)C1(O)CCCC1)c1nccc(C(F)(F)F)c1Cl (stereo not drawn) [Compound 32, N-[(2-bromophenyl)(1-hydroxycyclopentyl)methyl]-3-chloro-4-(trifluoromethyl)pyridine-2-carboxamide] | 60 nM |
| O=C(NC(c1cccc(-c2ccncc2)c1)C1(O)CCCC1)c1cccc(C(F)(F)F)c1Cl (stereo not drawn) [Compound 4, 2-chloro-N-{(1-hydroxycyclopentyl)[3-(pyridin-4-yl)phenyl]methyl}-3-(trifluoromethyl)benzamide] | 400 nM |

same assay, conditions: human GlyT1

| Compound | IC50 |
| --- | --- |
| O=C(NC(c1cccc(F)c1)C1(O)CCC(F)(F)CC1)c1ccnc(C(F)(F)F)c1Cl (single isomer, unassigned) [Compound 400, 3-chloro-N-[(4,4-difluoro-1-hydroxycyclohexyl)(3-fluorophenyl)methyl]-2-(trifluoromethyl)pyridine-4-carboxamide] | 230 nM |
| O=C(NC(c1ccccc1Cl)C1(O)CCC(F)(F)CC1)c1ncc(C(F)(F)F)cc1-n1nccn1 (single isomer, unassigned) [Compound 407, N-[(2-chlorophenyl)(4,4-difluoro-1-hydroxycyclohexyl)methyl]-3-(2H-1,2,3-triazol-2-yl)-5-(trifluoromethyl)pyridine-2-carboxamide] | 1000 nM |
| CS(=O)(=O)c1cc(C(F)(F)F)ccc1C(=O)NC(c1cccc(Cl)c1F)C1(O)CCC(F)(F)CC1 (single isomer, unassigned) [Compound 402, N-[(3-chloro-2-fluorophenyl)(4,4-difluoro-1-hydroxycyclohexyl)methyl]-2-(methylsulfonyl)-4-(trifluoromethyl)benzamide] | 450 nM |
